Experimental data reported in ChEMBL document CHEMBL3885881, “DrugMatrix”.

Organism: Rattus norvegicus
Assay: DrugMatrix - Regimen: Daily Repeat
Type: toxicity, organism-based, Sprague-Dawley
Set-up: regimen Daily Repeat, gender Male, age 6-8 weeks
Settings: in vivo, po, route oral GAVAGE, […]; for ABSOLUTE BASOPHIL / ABSOLUTE EOSINOPHIL / ABSOLUTE LYMPHOCYTE / ABSOLUTE MONOCYTE / ABSOLUTE SEGMENTED NEUTROPHIL / BASOPHIL / EOSINOPHIL / ERYTHROCYTE COUNT / HEMATOCRIT / HEMOGLOBIN / LEUKOCYTE COUNT / LYMPHOCYTE / MEAN CORPUSCULAR HEMOGLOBIN / MEAN CORPUSCULAR HEMOGLOBIN CONCENTRATION / MEAN CORPUSCULAR VOLUME / MONOCYTE / NEUTROPHIL / NUCLEATED RED BLOOD CELLS / PLATELET COUNT: tissue Blood; for ALANINE AMINOTRANSFERASE / ALBUMIN / ALKALINE PHOSPHATASE / ASPARTATE AMINOTRANSFERASE / BLOOD UREA NITROGEN / CARBON DIOXIDE / CHLORIDE / CHOLESTEROL / CREATINE PHOSPHOKINASE / CREATININE / GLUCOSE / LACTATE DEHYDROGENASE / LIPASE / PHOSPHORUS / POTASSIUM / SODIUM / TOTAL BILIRUBIN / TOTAL PROTEIN: tissue Plasma
[1] = 20 mg/kg, 72 h, dose level Low, time 3 day
[2] = 20 mg/kg, 120 h, dose level Low, time 5 day
[3] = 210 mg/kg, 72 h, dose level High, time 3 day
[4] = 210 mg/kg, 120 h, dose level High, time 5 day

SMILES: CN[C@H]1CC[C@@H](c2ccc(Cl)c(Cl)c2)c2ccccc21 [SERTRALINE]
- ABSOLUTE BASOPHIL [1]: 0 CELLS/uL
- ABSOLUTE EOSINOPHIL [1]: 28.33 CELLS/uL
- ABSOLUTE LYMPHOCYTE [1]: 10624.33 CELLS/uL
- ABSOLUTE MONOCYTE [1]: 86.67 CELLS/uL
- ABSOLUTE SEGMENTED NEUTROPHIL [1]: 1294 CELLS/uL
- BASOPHIL [1]: 0%
- EOSINOPHIL [1]: 0.33%
- ERYTHROCYTE COUNT [1]: 5.85 x10E6/uL
- HEMATOCRIT [1]: 36.57%
- HEMOGLOBIN [1]: 14.27 G/DL
- LEUKOCYTE COUNT [1]: 12.03 x10E3/uL
- LYMPHOCYTE [1]: 87.67%
- MEAN CORPUSCULAR HEMOGLOBIN [1]: 24.37 pg
- MEAN CORPUSCULAR HEMOGLOBIN CONCENTRATION [1]: 39.03 G/DL
- MEAN CORPUSCULAR VOLUME [1]: 62.47 fL
- MONOCYTE [1]: 0.67%
- NEUTROPHIL [1]: 11.33%
- NUCLEATED RED BLOOD CELLS [1]: 0 /100WBC
- PLATELET COUNT [1]: 1161.67 x10E3/uL
- ALANINE AMINOTRANSFERASE [1]: 70.33 u/L
- ALBUMIN [1]: 4.23 G/DL
- ALKALINE PHOSPHATASE [1]: 384.33 u/L
- ASPARTATE AMINOTRANSFERASE [1]: 83.33 u/L
- BLOOD UREA NITROGEN [1]: 14 mg/dL
- CARBON DIOXIDE [1]: 29.67 mmol/L
- CHLORIDE [1]: 103 MEQ/L
- CHOLESTEROL [1]: 79 mg/dL
- CREATINE PHOSPHOKINASE [1]: 163 u/L
- CREATININE [1]: 0.23 mg/dL
- GLUCOSE [1]: 158 mg/dL
- LACTATE DEHYDROGENASE [1]: 155 u/L
- LIPASE [1]: 11 u/L
- PHOSPHORUS [1]: 12.33 mg/dL
- POTASSIUM [1]: 6.97 MEQ/L
- SODIUM [1]: 147.8 MEQ/L
- TOTAL BILIRUBIN [1]: 0.17 mg/dL
- TOTAL PROTEIN [1]: 5.57 G/DL
- ABSOLUTE BASOPHIL [2]: 0 CELLS/uL
- ABSOLUTE EOSINOPHIL [2]: 46.67 CELLS/uL
- ABSOLUTE LYMPHOCYTE [2]: 12898.33 CELLS/uL
- ABSOLUTE MONOCYTE [2]: 0 CELLS/uL
- ABSOLUTE SEGMENTED NEUTROPHIL [2]: 955 CELLS/uL
- BASOPHIL [2]: 0%
- EOSINOPHIL [2]: 0.33%
- ERYTHROCYTE COUNT [2]: 5.71 x10E6/uL
- HEMATOCRIT [2]: 34.57%
- HEMOGLOBIN [2]: 13.57 G/DL
- LEUKOCYTE COUNT [2]: 13.9 x10E3/uL
- LYMPHOCYTE [2]: 92.33%
- MEAN CORPUSCULAR HEMOGLOBIN [2]: 23.83 pg
- MEAN CORPUSCULAR HEMOGLOBIN CONCENTRATION [2]: 39.27 G/DL
- MEAN CORPUSCULAR VOLUME [2]: 60.73 fL
- MONOCYTE [2]: 0%
- NEUTROPHIL [2]: 7.33%
- NUCLEATED RED BLOOD CELLS [2]: 0 /100WBC
- PLATELET COUNT [2]: 913 x10E3/uL
- ALANINE AMINOTRANSFERASE [2]: 60.33 u/L
- ALBUMIN [2]: 4.27 G/DL
- ALKALINE PHOSPHATASE [2]: 427 u/L
- ASPARTATE AMINOTRANSFERASE [2]: 85 u/L
- BLOOD UREA NITROGEN [2]: 13.67 mg/dL
- CARBON DIOXIDE [2]: 25.33 mmol/L
- CHLORIDE [2]: 103.33 MEQ/L
- CHOLESTEROL [2]: 77.67 mg/dL
- CREATINE PHOSPHOKINASE [2]: 211 u/L
- CREATININE [2]: 0.18 mg/dL
- GLUCOSE [2]: 164.33 mg/dL
- LACTATE DEHYDROGENASE [2]: 121.33 u/L
- LIPASE [2]: 10.33 u/L
- PHOSPHORUS [2]: 12.77 mg/dL
- POTASSIUM [2]: 7.01 MEQ/L
- SODIUM [2]: 147.5 MEQ/L
- TOTAL BILIRUBIN [2]: 0.2 mg/dL
- TOTAL PROTEIN [2]: 5.9 G/DL
- ABSOLUTE BASOPHIL [3]: 0 CELLS/uL
- ABSOLUTE EOSINOPHIL [3]: 0 CELLS/uL
- ABSOLUTE LYMPHOCYTE [3]: 11258 CELLS/uL
- ABSOLUTE MONOCYTE [3]: 82.33 CELLS/uL
- ABSOLUTE SEGMENTED NEUTROPHIL [3]: 1226.33 CELLS/uL
- BASOPHIL [3]: 0%
- EOSINOPHIL [3]: 0%
- ERYTHROCYTE COUNT [3]: 6.22 x10E6/uL
- HEMATOCRIT [3]: 39.43%
- HEMOGLOBIN [3]: 15.5 G/DL
- LEUKOCYTE COUNT [3]: 12.57 x10E3/uL
- LYMPHOCYTE [3]: 89.67%
- MEAN CORPUSCULAR HEMOGLOBIN [3]: 24.93 pg
- MEAN CORPUSCULAR HEMOGLOBIN CONCENTRATION [3]: 39.33 G/DL
- MEAN CORPUSCULAR VOLUME [3]: 63.33 fL
- MONOCYTE [3]: 0.67%
- NEUTROPHIL [3]: 9.67%
- NUCLEATED RED BLOOD CELLS [3]: 0 /100WBC
- PLATELET COUNT [3]: 1225 x10E3/uL
- ALANINE AMINOTRANSFERASE [3]: 53.67 u/L
- ALBUMIN [3]: 4.33 G/DL
- ALKALINE PHOSPHATASE [3]: 460.67 u/L
- ASPARTATE AMINOTRANSFERASE [3]: 112 u/L
- BLOOD UREA NITROGEN [3]: 16 mg/dL
- CARBON DIOXIDE [3]: 28.33 mmol/L
- CHLORIDE [3]: 101.33 MEQ/L
- CHOLESTEROL [3]: 55.33 mg/dL
- CREATINE PHOSPHOKINASE [3]: 286.67 u/L
- CREATININE [3]: 0.22 mg/dL
- GLUCOSE [3]: 117.33 mg/dL
- LACTATE DEHYDROGENASE [3]: 163.33 u/L
- LIPASE [3]: 10.33 u/L
- PHOSPHORUS [3]: 11.53 mg/dL
- POTASSIUM [3]: 6.21 MEQ/L
- SODIUM [3]: 146.43 MEQ/L
- TOTAL BILIRUBIN [3]: 0.1 mg/dL
- TOTAL PROTEIN [3]: 5.97 G/DL
- ABSOLUTE BASOPHIL [4]: 0 CELLS/uL
- ABSOLUTE EOSINOPHIL [4]: 207 CELLS/uL
- ABSOLUTE LYMPHOCYTE [4]: 18574.33 CELLS/uL
- ABSOLUTE MONOCYTE [4]: 70.33 CELLS/uL
- ABSOLUTE SEGMENTED NEUTROPHIL [4]: 1848.33 CELLS/uL
- BASOPHIL [4]: 0%
- EOSINOPHIL [4]: 1%
- ERYTHROCYTE COUNT [4]: 6.11 x10E6/uL
- HEMATOCRIT [4]: 37.3%
- HEMOGLOBIN [4]: 14.97 G/DL
- LEUKOCYTE COUNT [4]: 20.7 x10E3/uL
- LYMPHOCYTE [4]: 89.67%
- MEAN CORPUSCULAR HEMOGLOBIN [4]: 24.53 pg
- MEAN CORPUSCULAR HEMOGLOBIN CONCENTRATION [4]: 40.13 G/DL
- MEAN CORPUSCULAR VOLUME [4]: 61.1 fL
- MONOCYTE [4]: 0.33%
- NEUTROPHIL [4]: 9%
- NUCLEATED RED BLOOD CELLS [4]: 0 /100WBC
- PLATELET COUNT [4]: 1278.33 x10E3/uL
- ALANINE AMINOTRANSFERASE [4]: 67 u/L
- ALBUMIN [4]: 4.07 G/DL
- ALKALINE PHOSPHATASE [4]: 368.33 u/L
- ASPARTATE AMINOTRANSFERASE [4]: 101.67 u/L
- BLOOD UREA NITROGEN [4]: 18 mg/dL
- CARBON DIOXIDE [4]: 26 mmol/L
- CHLORIDE [4]: 102.67 MEQ/L
- CHOLESTEROL [4]: 74 mg/dL
- CREATINE PHOSPHOKINASE [4]: 255.33 u/L
- CREATININE [4]: 0.23 mg/dL
- GLUCOSE [4]: 153 mg/dL
- LACTATE DEHYDROGENASE [4]: 287.33 u/L
- LIPASE [4]: 10 u/L
- PHOSPHORUS [4]: 12.3 mg/dL
- POTASSIUM [4]: 6.87 MEQ/L
- SODIUM [4]: 146.47 MEQ/L
- TOTAL BILIRUBIN [4]: 0.13 mg/dL
- TOTAL PROTEIN [4]: 5.9 G/DL
